Laboratory results taken from patent publication US20020045764A1, “Tubulin binding compounds (COBRA)” (Parker Hughes Institute, priority 1998, published 2002).

Key:
[1] = test system: SQ20B; assay: MTT assay; type: cell-based, human; conditions: 24-36 hours
Experimental: (§1) The antiproliferative activity of […] and the control mono-THF containing compounds 8.2, 8.3, and 8.4 was examined against a panel of 5 different human tumor cell lines using standard MTT (3-[4,5-dimethylthiazol-2-yl]-2,5-diphenyl tetrazolium bromide) assays^18 (Boehringer Mannheim Corp., Indianapolis, Ind.).
(§2) Briefly, exponentially growing brain tumor cells were seeded into a 96-well plate at a density of 2.5×10^4 cells/well and incubated for 36 hours at 37° C. prior to drug exposure. On the day of treatment, culture medium was carefully aspirated from the wells and replaced with fresh medium containing the test or control compounds at concentrations ranging from 0.1 to 250 μM. Triplicate wells were used for each treatment. The cells were incubated with the various compounds for 24-36 hours at 37° C. in a humidified 5% CO2 atmosphere. To each well, 10 μl of MTT (0.5 mg/ml final concentration) was added and the plates were incubated at 37° C. for 4 hours to allow MTT to form formazan crystals by reacting with metabolically active cells . The formazan crystals were solubilized overnight at 37° C. in a solution containing 10% SDS in 0.01 M HCl. The absorbence of each well was measured in a microplate reader (Labsystems) at 540 nm and a reference wavelength of 690 nm. To translate the OD 540 values into the number of live cells in each well, the OD540 values were compared to those on standard OD540-versus-cell number curves generated for each cell line. The percent survival was calculated using the formula: % survival=Live cell number[test]×100/Live cell number[control].
(§3) IC50 values were calculated by non-linear regression analysis using an Graphpad Prism software version 2.0 (Graphpad Software, Inc., San Diego, Calif.).

[2] = test system: Nalm-6 leukemia cells; assay: Transmission electron microscopy; type: cell-based, human; parameters: dose or concentration left out as unconfirmed
[3] = target: T1, Bovine brain tubulin (Bos taurus, UniProt P81947+Q6B856); assay: Tubulin turbidity assay (GTP-induced tubulin polymerization); type: biochemical; conditions: 1 mg/ml tubulin, 1 mM GTP, 37° C., OD 350 nm
T1 construct: purchased Sigma, St. Louis, Mo; host or cells: bovine brain (tissue-purified)
Experimental: Bovine brain tubulin (Sigma, St. Louis, Mo.) was used in standard turbidity assays to test the effects of compounds COBRA-1 and COBRA-2 as well as control compounds on GTP-induced tubulin polymerization. Compounds (in 1% DMSO) were added to tubulin (1 mg/ml, 0.1M MES, 1 mM EGTA, 0.5 mM MgCl2, 0.1 mM EDTA, 2.5M glycerol, 1 μg/ml leupeptin, 1 μg/ml aprotinin, pH 6.5) followed by stimulation of polymerization with 1 mM GTP at 2 minutes and 1 mM taxol at 30 minutes. Optical density was measured using a Becton Dickinson UV spectrophotometer (350 nm) using a thermostated cuvette holder to keep the reaction at 37° C. Readings obtained from the spectro-photometer were standardized by subtracting the background absorbance of the compound in water from the sample reading following drug addition.
To test the latitude of the structure at the opposite end of the molecule from the long chain (head region), three new COBRA compounds were synthesized according to the schemes shown below: COBRA-3, COBRA-4, and COBRA-5. Each of these compounds was then tested for tubulin depolymerization activity, using the tubidity assay described in the Examples above.
Each of these compounds was assayed for effects on GTP-dependent tubulin polymerization, using the methods described above.

[4] = test system: zebrafish (ZF) (Danio rerio) embryos; assay: Zebrafish embryo model, cell division and development; type: in vivo
Experimental: ZF eggs were removed from their chorions by mild digestion in 1% Trypsin-EDTA (Sigma) for 10 minutes at 28.5° C. (Standard temperature—ST), washed three times in “egg water”^15-16 and twice in “embryonic medium” (EM)^15-16. The dechorionated two-cell stage cleaving eggs/embryos were transferred to the 24-well plastic cell culture plates (Costar, City, State) filled with EM or Hank's Balanced Salt Saline (HBSS, Gibco, City, State). Dechorionated embryos (10-12 per well) were exposed to the drugs at a constant ST for 0.5-24 hours. The final volume of the media in each well was 500 μL. All reference as well as test compounds were used at concentrations ranging from 10 μM to 4 mM. The title compounds were dissolved in DMSO and then diluted serially with the incubation medium. The final concentration of DMSO in the wells was 1.2% (with the exception of the etoposide treatment where it was 3%). The sham-treated control embryos were incubated in EM or HBSS in the presence of 1.2% (or 3%) DMSO.
Observations of cell division and development of the ZF embryos were carried out using a SMZ-10A stereo microscope (Nicon, City, State), once every 30 minutes within the first 3 hours of incubation and at 6, 12 and 24 hours, as well. […] The stereo microscope was fitted with a specially designed transparent heating tray in order to keep embryos at ST during observations. Pictures of the embryos were taken with a H-III Photomicrographic System (Nicon) using Ektachrome 64X film (Kodak, Rochester, N.Y.).

[5] = test system: human tumor cell lines; assay: MTT assays, panel of human tumor cell lines (overall statement); type: cell-based; conditions: 0.1 to 250 μM
Experimental: as §1
as §2, with “The formazan crystals were solubilized overnight at 37° C. in a solution containing 10% SDS in 0.01 M HCl.” left out, “To translate the OD 540 values into the number of live cells in each well, the OD540 values were compared to those on standard OD540-versus-cell number curves generated for each cell line.” left out, “number[control]. […]” for “number[control].”

[6] = test system: U373 brain tumor cells; assay: Cytotoxicity by confocal microscopy (tubulin immunofluorescence); type: cell-based, human
Experimental: (§4) Cells were incubated at 37° C. for the indicated time periods with the title compounds. At the end of the incubation, cells were washed twice with PBS and fixed in 2% paraformaldehyde. The cells were permeabilized and non-specific binding sites were blocked with 2.5% BSA in PBS containing 0.1% Triton X-100 for 30 minutes. Tubulin expression was examined by immunofluorescence using a monoclonal antibody against α-tubulin (Sigma Chemical Co, St. Louis, Mo.) at a dilution of 1:1000 and an anti-mouse IgG conjugated to FITC. Cells were washed in PBS and counterstained with toto-3 (Molecular Probes Inc., Eugene, Oreg.) for 10 minutes at a dilution of 1:1000. Cells were washed again with PBS and the coverslips were mounted with Vectashield (Vector Labs, Burlingame, Calif.) and viewed with a confocal microscope (Bio-Rad MRC 1024) mounted in a Nikon Labhophot upright microscope. Digital images were saved on a Jaz disk and processed with Adobe Photoshop software (Adobe Systems, Mountain View, Calif.).
(§5) The ultrastructural changes in human breast and glioblastoma cancer cells treated with COBRA-1 or COBRA-2 were examined by confocal microscopy and by transmission electron microscopy, using methods previously reported^19.

[7] = test system: BT-20 breast cancer cells; assay: as above; type: cell-based, human
Experimental: as §4, §5

[8] = test system: U373 brain tumor cells; assay: Two-photon confocal laser scanning microscopy, DiA-labeled cells; type: cell-based, human; conditions: for cell morphology: U373, 100 μM
Experimental: In some experiments, COBRA-1 treated brain tumor cells were labeled with the membrane dye DiA and imaged using multiphoton microscopy. The individual tumor cells were imaged 1 hour before adding 100 μM COBRA- 1. The total imaging period was 3 hours.
U373 brain tumor cells were labeled with the membrane dye DiA and imaged using two-photon microscopy.
Arrows denote membrane ruffles formed in the direction that the cell is crawling. Arrowheads denote the trailing edge or the edge where the cell is retracting. The cell was imaged 1 hour before adding 100 μM DDE261 (FIG. 9A). […] The cell continued to shrink throughout the 3 hour imaging period (FIGS. 9E and 9F). The white material in the color photographs is the dye, DiA. The Scale Bar denotes 20 microns.

[9] = test system: NALM-6; assay: MTT assay; type: cell-based, human; conditions: 24-36 hours
Experimental: as §1, §2, §3
(§6) The following human cancer cell lines were used in the present study: BT-20, breast cancer; MDA-MB-231, breast cancer; PC3, prostate cancer; U87 and U373, glioblastoma; NALM-6, B-lineage acute lymphoblastic leukemia. These cell lines were obtained from American Type Culture Collection (Manassas, Va.) and maintained as continuous cell lines in Dulbecco's modified Eagles's medium supplemented with 10% fetal bovine serum and antibiotics.

[10] = test system: MDA-MB-231; assay: MTT assay; type: cell-based, human; conditions: 24-36 hours
Experimental: as §1, §2, §3, §6

[11] = test system: PC-3; assay: MTT assay; type: cell-based, human; conditions: 24-36 hours
Experimental: as §1, §2, §3, §6

[12] = test system: U87; assay: MTT assay; type: cell-based, human; conditions: 24-36 hours
Experimental: as §1, §2, §3, §6

T1 sequence (P81947 whole entry): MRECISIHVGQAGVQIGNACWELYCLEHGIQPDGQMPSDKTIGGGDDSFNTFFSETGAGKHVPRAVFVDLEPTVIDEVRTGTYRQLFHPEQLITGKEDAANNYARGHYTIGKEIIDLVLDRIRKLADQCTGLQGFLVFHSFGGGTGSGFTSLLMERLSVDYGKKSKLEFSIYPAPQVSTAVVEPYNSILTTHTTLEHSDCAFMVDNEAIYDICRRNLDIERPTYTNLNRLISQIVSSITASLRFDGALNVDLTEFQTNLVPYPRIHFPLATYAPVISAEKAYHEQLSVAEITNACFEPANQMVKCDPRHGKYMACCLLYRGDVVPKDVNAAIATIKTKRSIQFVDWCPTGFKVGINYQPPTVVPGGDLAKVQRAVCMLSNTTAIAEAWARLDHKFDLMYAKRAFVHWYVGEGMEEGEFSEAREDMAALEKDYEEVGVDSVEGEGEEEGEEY
T1 sequence (Q6B856 whole entry): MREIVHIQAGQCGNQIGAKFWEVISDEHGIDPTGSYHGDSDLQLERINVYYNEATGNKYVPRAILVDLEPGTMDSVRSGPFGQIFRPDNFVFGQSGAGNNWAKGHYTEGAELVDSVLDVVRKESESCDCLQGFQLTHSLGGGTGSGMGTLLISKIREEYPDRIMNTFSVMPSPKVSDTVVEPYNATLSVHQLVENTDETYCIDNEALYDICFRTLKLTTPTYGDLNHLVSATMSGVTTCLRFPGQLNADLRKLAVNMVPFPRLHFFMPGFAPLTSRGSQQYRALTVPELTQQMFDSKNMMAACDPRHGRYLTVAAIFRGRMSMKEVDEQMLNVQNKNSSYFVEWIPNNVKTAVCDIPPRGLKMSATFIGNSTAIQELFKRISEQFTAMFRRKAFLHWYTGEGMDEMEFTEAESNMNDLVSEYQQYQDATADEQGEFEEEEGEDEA

For `CCCCCCCCCCCC[C@@H](O)[C@H]1CC[C@H](CO)O1` [COBRA-1], the IC50 [1] was 140 µM, the ultrastructural changes [2] was “nuclear fragmentation, chromatin condensation, and formation of multiple autophagosomes, consistent with apoptosis” and the “effect on GTP-dependent tubulin polymerization (turbidity)” value (shortened to “effect … (turbidity)”) [3] was “caused partial depolymerization of tubulin and inhibited its polymerization in the presence of GTP”. The “effect on ZF embryo” value ([4]; 200 μM, 30 minutes) was “start of cell fusion”, the “effect on ZF embryo” value ([4]; 200 μM, 60 minutes) was “cell division blockade, total fusion and developmental arrest” and the “effect on ZF embryo” value ([4]; 400 μM, 30 minutes) was “deterioration of cell division and start of cell fusion”. For the same molecule, the “effect on ZF embryo” value ([4]; 400 μM, 60 minutes) was “cell division blockade, total fusion and developmental arrest”, the “effect on two-cell stage ZF embryos” value ([4]; 200 and 400 μM) was “developed normally for 30 minutes, up to the 8-cell stage, and then showed an immediate arrest of proliferation followed by cell fusion” and the “inhibition of all cell lines” value [5] was “inhibited by COBRA-1 in a dose-dependent fashion”. The “cell morphology / microtubules” value ([6]; U373, 100 μM) was “induces abnormal tubulin structures”, the “cell morphology / microtubules” value ([6]; U373, 200 μM) was “cell death with nuclear fragmentation and complete loss of microtubule formation” and the “cell morphology / microtubules” value ([7]; BT-20, 100 μM, 24 hours) was “the cells shrink and the microtubules become less organized”. For the same molecule, the “cell morphology / microtubules” value ([7]; BT-20, 200 μM) was “cell death with nuclear fragmentation and complete loss of microtubule formation”, the cell morphology ([8]; after 1 hour) was “only trailing edges are present” and the cell morphology ([8]; within 40 minutes of drug addition) was “only one membrane ruffle is still evident”. For the same molecule, the “onset of induced apoptosis after exposure” value ([8]; tumor cells (U373)) was “approximately 1 hour”, the “time to total destruction” value ([8]; tumor cells (U373)) was ≤ 24 h and the IC50 [9] was 49 µM. For the same molecule, the IC50 [10] was 77 µM, the IC50 [11] was 171 µM and the IC50 [12] was 107 µM.
In the case of `C=CCC[C@H](O)[C@H]1CC[C@H]([C@H](O)CCCCCCCCCCCC)O1` [COBRA-2], the “effect … (turbidity)” value [3] is reported as “caused partial depolymerization of tubulin and inhibited its polymerization in the presence of GTP”, the “cell morphology / microtubules” value ([6]; U373, 100-200 μM) is reported as “cell death with nuclear fragmentation and complete loss of microtubule formation” and the “cell morphology / microtubules” value ([6]; U373, 24 hours (FIG. 10E)) is reported as “the cells shrink and the microtubules become less organized”. The “cell morphology / microtubules” value ([7]; BT-20, 100-200 μM) was “cell death with nuclear fragmentation and complete loss of microtubule formation” and the “cell morphology / microtubules” value ([7]; BT-20, 24 hours (FIG. 10B)) was “the cells shrink and the microtubules become less organized”.
With `CCCCCCCCCCCC[C@@H](O)[C@H]1CC[C@H]([C@@H](O)CO)O1` [COBRA-4] the “effect … (turbidity)” value [3] was “caused partial depolymerization of tubulin and completely inhibited its polymerization in the presence of GTP”.
`OC(CSOOc1ccccc1)C1CCC(COCc2ccccc2)O1` (centres unmarked) [Compound 8.2] was tested, and the IC50 ([1]; Homo sapiens) was > 250 µM, the IC50 ([9]; Homo sapiens) was > 250 µM and the IC50 ([10]; Homo sapiens) was > 250 µM. For the same molecule, the IC50 ([11]; Homo sapiens) was > 250 µM and the IC50 ([12]; Homo sapiens, U-87 MG) was > 250 µM.
With `C[C@@H](O)[C@H]1CC[C@H](CO)O1` [Compound 8.3] the IC50 ([1]; Homo sapiens) was > 250 µM, the IC50 ([9]; Homo sapiens) was > 250 µM and the IC50 ([10]; Homo sapiens) was > 250 µM. The IC50 ([11]; Homo sapiens) was > 250 µM and the IC50 ([12]; Homo sapiens, U-87 MG) was > 250 µM.
For `OCC(O)[C@H]1CC[C@H](CO)O1` (some centres unmarked) [Compound 8.4], the IC50 ([1]; Homo sapiens) was > 250 µM, the IC50 ([9]; Homo sapiens) was > 250 µM and the IC50 ([10]; Homo sapiens) was > 250 µM. The IC50 ([11]; Homo sapiens) was > 250 µM and the IC50 ([12]; Homo sapiens, U-87 MG) was > 250 µM.
`CN(Cc1cnc2nc(N)nc(N)c2n1)c1ccc(C(=O)N[C@@H](CCC(=O)O)C(=O)O)cc1` [methotrexate, reference compound] was tested, and the effect on gastrulation ([4]; 1-4 mM) was “failed to gastrulate” and the “effect on cell division during cleavage and blastula stages” value ([4]; by 4 hours of incubation) was “no visible effect”.
`CC(=O)O[C@H]1C(=O)[C@@]2(C)[C@H]([C@H](OC(=O)c3ccccc3)[C@]3(O)C[C@H](OC(=O)[C@H](O)[C@@H](NC(=O)c4ccccc4)c4ccccc4)C(C)=C1C3(C)C)[C@]1(OC(C)=O)CO[C@@H]1C[C@@H]2O` [paclitaxel, reference compound] was tested, and the “effect on ZF embryos” value ([4]; 400 μM in EM) was “developmental abnormalities after 90 minutes of exposure”.
With `CC[C@]1(O)C[C@H]2CN(CCc3c([nH]c4ccccc34)[C@@](C(=O)OC)(c3cc4c(cc3OC)N(C=O)[C@H]3[C@@](O)(C(=O)OC)[C@H](OC(C)=O)[C@]5(CC)C=CCN6CC[C@]43[C@@H]65)C2)C1` [vincristine, reference compound] the “effect on ZF embryos” value ([4]; 100 μM in EM or HBSS) was “rapid total cell division blockade, cell fusion and developmental arrest” and the “time until two-cell stage embryos stopped cleaving” value ([4]; 100 μM in EM or HBSS) was ≤ 15 min.
